Test results reported in patent US20230035403A1, “Method For Determining Responsiveness To Prostate Cancer Treatment” (Janssen Biotech, Inc., priority 2020, published 2023).

Tested on: CD8+ T cells in PBMCs from patients with metastatic castrate-resistant prostate cancer
Assay: Patient PBMC restimulation assay (in vitro immunogenicity of neoantigens)
Type: cell-based, human
Conditions: for Immunogenic: Patient PBMC restimulation, TNFα and IFNγ production by CD8+ T cells; for Maximum fold change over negative control: TNFα+IFNγ+CD8+ T cells, highest fold change across the PBMC donors evaluated, 9 mer peptide; for Maximum frequency of TNFα^+IFNγ^+CD8^+ T cells (Percent): greatest frequency among all tested PBMC donors, negative control 0.011-0.8 depending on patient
Protocol: PBMCs from human patients with metastatic castrate-resistant prostate cancer were thawed using media (RPMI 1640 supplemented with Glutamax, 10% HI FBS, and 1× Sodium Pyruvate). Cells were counted and plated in a 96 well round bottom microplate at a concentration of 250,000 viable cells per well. Lyophilized peptides were solubilized in 100% DMSO and diluted in media to 10 μg/mL. Neoantigen peptides were added in equal volume to PBMCs for a final concentration of 5 μg/mL. CEF Peptide Pool “Plus” (Cellular Technologies, Ltd.) was utilized as a positive control and DMSO at the same final concentration as the experimental peptides was utilized as a negative control. Human IL-15 (Peprotech) was added to all wells at final concentration of 10 ng/mL.
Plates were incubated at 37° C. (5% CO2) for a total of 13 days. Media was refreshed every 2 days with IL-15 (10 ng/mL final concentration) and IL-2 (R&D systems, 10 IU/mL final concentration). On day 12, PBMCs were re-stimulated with identical experimental peptides or controls, at same concentration as peptide stimulation on Day 1. After 1-hour incubation, protein Inhibitor Cocktail (eBioscience) was added to every well and plate was incubated overnight.
On day 13, cells were stained for intracellular flow cytometry analysis. The cells were washed with PBS and stained with Live/Dead Fixable Aqua Dead Cell stain (Thermo-Fisher). Following the live/dead stain, cells were blocked using Biotin-Free Fc Receptor Blocker (Accurate Chemical & Scientific Corp). Extracellular cellular flow panel (1 μL/antibody per well in 50 μL) consisted of CD3 PerCP-Cy5.5 (Biolegend), CD4 BV421 (Biolegend), and CD8 APC-Cy7 (Biolegend). After extracellular staining, cells were fixed using Foxp3/Transcription Factor Staining Buffer Set (eBioscience) and stained for intracellular proteins (1:50 dilution) using TNFα FITC (R&D Systems) and IFNγ BV785 (Biolegend). Cells were washed and resuspended in stain buffer and analyzed using a BD Celesta flow cytometer.
Flow cytometry cell staining analysis was completed using FlowJo v10. Cells were gated on live, singlet, CD3+ cells. The CD8+ T cells were analyzed for TNFα/IFNγ expression and the frequency of double positive TNFα/IFNγ CD8+ T cells was recorded. Responses were assessed to be positive when the frequency of double positive TNFα/IFNγ CD8+ T cells due to stimulation with an experimental peptide was increased greater than or equal to 2-fold over the DMSO only negative control for that patient. Peptides were analyzed in 1 to 7 patient samples.
The 9 mer fragments shown in Table 13 were assessed for their ability to activate T cells using the Patient PBMC restimulation assay described in Example 1 using TNFα and IFNγ production by CD8^+ T cells as a readout. Self-antigens shown in Table 15 were also used in the assays. […] PBMCs from ten patients were evaluated.

Sequence: SLYHREKQLIAMDSAI [Neoantigen P22]
- Immunogenic: Yes
- Maximum fold change over negative control: 5.00
- Maximum frequency of TNFα^+IFNγ^+CD8^+ T cells (Percent): 0.120%

Sequence: YEAGMTLGEKFRVGNCKHLKMTRP [Neoantigen P82]
- Immunogenic: Yes
- Maximum fold change over negative control: 3.46
- Maximum frequency of TNFα^+IFNγ^+CD8^+ T cells (Percent): 0.970%

Sequence: YEAGMTLGGKILFFLFLLLPLSPFSLIF [Neoantigen P87]
- Immunogenic: Yes
- Maximum fold change over negative control: 3.24
- Maximum frequency of TNFα^+IFNγ^+CD8^+ T cells (Percent): 0.120%
